Test results from ChEMBL document CHEMBL1201862, “PubChem BioAssay data set” (2004).
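Tested at 5 concentrations; 48 h exposure; 96-well plates; endpoints linearly interpolated, else capped at highest concentration. GI50 = concentration required for 50% inhibition of growth.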 Activity calls are given as the source filed them. Rule as the data show it: active = GI50 up to about 1.1 µM and inactive = higher.

How the values were obtained:
Assay in all cases: DTP human tumour cell line panel, 48 h
NCI-H522 = test system: NCI-H522
A498 = test system: A498
UO-31 = test system: UO-31
HOP-62 = test system: HOP-62
NCI-H460 = test system: NCI-H460
CAKI-1 = test system: CAKI-1
BT-549 = test system: BT-549
IGROV-1 = test system: IGROV-1
NCI-H23 = test system: NCI-H23
K562 = test system: K562
LOX IMVI = test system: LOX IMVI
MDA-N = test system: MDA-N
SF-295 = test system: SF-295
SK-OV-3 = test system: SK-OV-3
DU-145 = test system: DU-145
HOP-92 = test system: HOP-92
U-251 = test system: U-251
UACC-257 = test system: UACC-257
MOLT-4 = test system: MOLT-4
RPMI-8226 = test system: RPMI-8226
COLO 205 = test system: COLO 205
T47D = test system: T47D
786-0 = test system: 786-0
SF-268 = test system: SF-268
KM12 = test system: KM12
NCI/ADR-RES = test system: NCI/ADR-RES
NCI-H226 = test system: NCI-H226
MDA-MB-231 = test system: MDA-MB-231
UACC-62 = test system: UACC-62
Hs-578T = test system: Hs-578T
ACHN = test system: ACHN
SK-MEL-5 = test system: SK-MEL-5
OVCAR-8 = test system: OVCAR-8
SK-MEL-28 = test system: SK-MEL-28
A549 = test system: A549
SW-620 = test system: SW-620
PC-3 = test system: PC-3
EKVX = test system: EKVX
RXF 393 = test system: RXF 393
SNB-75 = test system: SNB-75
TK-10 = test system: TK-10
HT-29 = test system: HT-29
CCRF-CEM = test system: CCRF-CEM
MCF7 = test system: MCF7
HL-60 = test system: HL-60
SF-539 = test system: SF-539
SNB-19 = test system: SNB-19
M14 = test system: M14
HCT-15 = test system: HCT-15
OVCAR-5 = test system: OVCAR-5
Malme-3M = test system: Malme-3M
SN12C = test system: SN12C
OVCAR-4 = test system: OVCAR-4
OVCAR-3 = test system: OVCAR-3
MDA-MB-435 = test system: MDA-MB-435
HCC 2998 = test system: HCC 2998
SR = test system: SR
HCT-116 = test system: HCT-116

C[C@]12CC[C@H]3[C@@H](CC=C4C[C@@H](N5CCCC5)CC[C@@]43C)[C@@H]1C[C@H](N1CCOCC1)[C@@H]2O
GI50 (NCI-H522): > 100 µM (inactive) | GI50 (A498): > 100 µM (inactive) | GI50 (UO-31): > 100 µM (inactive) | GI50 (HOP-62): > 100 µM (inactive) | GI50 (NCI-H460): > 100 µM (inactive) | GI50 (CAKI-1): > 100 µM (inactive) | GI50 (BT-549): > 100 µM (inactive) | GI50 (IGROV-1): > 100 µM (inactive) | GI50 (NCI-H23): > 100 µM (inactive) | GI50 (K562): 22.5 µM (inactive) | GI50 (LOX IMVI): > 10 µM (inactive) | GI50 (MDA-N): > 100 µM (inactive) | GI50 (SF-295): > 100 µM (inactive) | GI50 (SK-OV-3): > 100 µM (inactive) | GI50 (DU-145): > 100 µM (inactive) | GI50 (HOP-92): > 100 µM (inactive) | GI50 (U-251): > 100 µM (inactive) | GI50 (UACC-257): > 100 µM (inactive) | GI50 (MOLT-4): > 100 µM (inactive) | GI50 (RPMI-8226): > 100 µM (inactive) | GI50 (COLO 205): > 100 µM (inactive) | GI50 (T47D): > 100 µM (inactive) | GI50 (786-0): > 100 µM (inactive) | GI50 (SF-268): > 100 µM (inactive) | GI50 (KM12): > 100 µM (inactive) | GI50 (NCI/ADR-RES): > 100 µM (inactive) | GI50 (NCI-H226): > 100 µM (inactive) | GI50 (MDA-MB-231): > 100 µM (inactive) | GI50 (UACC-62): > 100 µM (inactive) | GI50 (Hs-578T): > 100 µM (inactive) | GI50 (ACHN): > 100 µM (inactive) | GI50 (SK-MEL-5): > 100 µM (inactive) | GI50 (OVCAR-8): > 100 µM (inactive) | GI50 (SK-MEL-28): > 100 µM (inactive) | GI50 (A549): > 100 µM (inactive) | GI50 (SW-620): > 100 µM (inactive) | GI50 (PC-3): > 100 µM (inactive) | GI50 (EKVX): > 100 µM (inactive) | GI50 (RXF 393): > 100 µM (inactive) | GI50 (SNB-75): > 100 µM (inactive) | GI50 (TK-10): > 100 µM (inactive) | GI50 (HT-29): 44.5 µM (inactive) | GI50 (CCRF-CEM): > 100 µM (inactive) | GI50 (MCF7): > 10 µM (inactive) | GI50 (HL-60): 98.4 µM (inactive) | GI50 (SF-539): > 100 µM (inactive) | GI50 (SNB-19): > 100 µM (inactive) | GI50 (M14): > 10 µM (inactive) | GI50 (HCT-15): > 100 µM | GI50 (OVCAR-5): > 100 µM (inactive) | GI50 (Malme-3M): > 100 µM (inactive) | GI50 (SN12C): > 100 µM (inactive) | GI50 (OVCAR-4): > 100 µM (inactive) | GI50 (OVCAR-3): > 100 µM (inactive) | GI50 (MDA-MB-435): 61.2 µM (inactive) | GI50 (HCC 2998): > 100 µM (inactive) | GI50 (SR): 23.4 µM (inactive) | GI50 (HCT-116): > 100 µM (inactive)
